Assay results: article PMC4304192, “KUD773, a phenylthiazole derivative, displays anticancer activity in human hormone-refractory prostate cancers through inhibition of tubulin polymerization and anti-Aurora A activity” (Journal of Biomedical Science, 2015)

Target: T1, Aurora A kinase (Homo sapiens, UniProt O14965)
T1 construct: gene AURKA
T1 sequence (O14965 1-403): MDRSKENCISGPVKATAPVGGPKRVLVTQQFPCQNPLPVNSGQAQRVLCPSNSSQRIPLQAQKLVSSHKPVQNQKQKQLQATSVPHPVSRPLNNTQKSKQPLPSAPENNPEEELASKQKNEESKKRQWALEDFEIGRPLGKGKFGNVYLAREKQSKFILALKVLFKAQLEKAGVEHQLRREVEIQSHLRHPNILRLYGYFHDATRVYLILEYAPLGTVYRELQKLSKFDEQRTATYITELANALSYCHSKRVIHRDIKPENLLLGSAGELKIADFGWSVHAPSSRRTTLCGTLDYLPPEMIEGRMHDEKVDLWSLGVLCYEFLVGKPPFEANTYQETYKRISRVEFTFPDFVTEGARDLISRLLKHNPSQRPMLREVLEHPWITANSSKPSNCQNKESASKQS
Assay: Aurora A luminescent kinase assay (Kinase-Glo Plus, […] ATP, LRRWSLG peptide substrate)
Assay type: biochemical

IC50: 30 µM
Compound: FC(F)(F)c1cccc(-c2csc(-n3ccnc3)n2)c1 [KUD773, 2-(1H-imidazol-1-yl)-4-(3-(trifluoromethyl)phenyl)thiazole]
